One assay concerns solubilizing enzyme of HB-EGF. As to the kind of experiment: Inhibition of TPA-stimulated release of HB-EGF from HT-1080 transfectant expressing HB-EGF/alkaline phosphatase fusion protein. The format is cell-based, human. The settings on record: HT-1080 HB-EGF-AP transfectant, TPA 60 nM for 60 min, AP activity in conditioned medium (OD405). The procedure:
Human fibrosarcoma HT-1080 stable transfectant expressing fusion protein of HB-EGF and human placental alkaline phosphatase (AP) were used for following experiments.
The cultured transfectant was treated with Trypsin-EDTA solution, and suspended in Minimum Essential Medium (without phenol red; supplemented with 10% heat-inactivated fetal calf serum; MEM) at the concentration of 1×10^5 cells/ml. Each 0.2 ml of the cell suspension was dispensed into individual wells of 96 well microplate, and incubated overnight in the CO2 incubator (37° C.). After the incubation, the conditioned medium was removed, and the wells were washed once with 0.2 ml of phosphate buffered saline. The cells were treated with 0.1 ml of compound solution [compound solutions in dimethylsulfoxide (DMSO) were diluted 100 times with MEM] for 30 min at 37° C. Then the compound solutions were removed, and cells were treated with 0.2 ml of TPA solution (120 μM) of stock solution was diluted to 60 nM with MEM) containing same concentration of the compound for 60 min at 37° C. The cells treated same procedure without compound were used as control.
After these treatments, each 0.1 ml of conditioned medium was transferred to individual wells of new 96 well microplate and incubated at 65° C. for 10 min to inactivate endogenous alkaline phosphatase. One hundred microliter of substrate solution (1 mg/ml of p-nitrophenyl phosphate in 0.01% magnesium chloride/1 M diethanolamine) for AP was added to each well and incubated for 120 min at room temperature in the dark. The OD405 of each well was measured with microplate reader. The IC50 values of the compounds were calculated from the concentration-inhibition curves.
The compound `O=C(NO)C1Cc2nccnc2CN1S(=O)(=O)c1ccc(Oc2ccncc2)cc1` (racemic) [the compound(2), (±)-N-Hydroxy-6-[4-(pyridine-4-yloxy)benzenesulfonyl]-5,6,7,8-tetrahydropyrido[3,4-b]pyrazine-7-carboxamide] gave an IC50 of 990 nM.
Still for that read-out and setting: for `O=C(NO)C1Cc2nccnc2CN1S(=O)(=O)c1ccc(Oc2cnccn2)cc1` (racemic) [the compound(5), (±)-N-Hydroxy-6-[4-(pyrazine-2-yloxy)benzenesulfonyl]-5,6,7,8-tetrahydropyrido[3,4-b]pyrazine-7-carboxamide] the value was 900 nM; for `CSCCCOc1ccc(S(=O)(=O)N2Cc3nccnc3CC2C(=O)NO)cc1` (racemic) [the compound(10), (±)-N-Hydroxy-6-[4-(3-methylthiopropoxy)benzenesulfonyl]-5,6,7,8-tetrahydropyrido[3,4-b]pyrazine-7-carboxamide], 340 nM.

Staying with this assay, now noted: HT-1080 HB-EGF-AP transfectant, TPA 60 nM for 60 min, AP activity in conditioned medium (OD405); read-out: IC50.
On to `COc1ccc(S(=O)(=O)N2Cc3nccnc3CC2C(=O)NO)cc1` (racemic) [the compound(1), (±)-N-Hydroxy-6-(4-methoxybenzenesulfonyl)-5,6,7,8-tetrahydropyrido[3,4-b]pyrazine-7-carboxamide], for which the IC50 was found to be 800 nM.
Consider `O=C(NO)C1Cc2nccnc2CN1S(=O)(=O)c1ccc(Oc2ccccc2)cc1` (racemic) [the compound(3), (±)-N-Hydroxy-6-(4-phenoxybenzenesulfonyl)-5,6,7,8-tetrahydropyrido[3,4-b]pyrazine-7-carboxamide], for which the IC50 came out at 1000 nM.
Still for that read-out and setting: next, `COCCCOc1ccc(S(=O)(=O)N2Cc3nccnc3CC2C(=O)NO)cc1` (racemic) [the compound(4), (±)-N-Hydroxy-6-[4-(3-methoxypropoxy)benzenesulfonyl]-5,6,7,8-tetrahydropyrido[3,4-b]pyrazine-7-carboxamide]: 240 nM.
On the same count and under the same terms, next, `Nc1ccc(Oc2ccc(S(=O)(=O)N3Cc4nccnc4CC3C(=O)NO)cc2)cc1` (racemic) [the compound(6), (±)-N-Hydroxy-6-[4-(4-aminophenoxy)benzenesulfonyl]-5,6,7,8-tetrahydropyrido[3,4-b]pyrazine-7-carboxamide]: 1100 nM.
Still for that read-out and setting: for `CCOCCOc1ccc(S(=O)(=O)N2Cc3nccnc3CC2C(=O)NO)cc1` (racemic) [the compound(7), (±)-N-Hydroxy-6-[4-(2-ethoxyethoxy)benzenesulfonyl]-5,6,7,8-tetrahydropyrido[3,4-b]pyrazine-7-carboxamide] the value was 260 nM; for `COCCOc1ccc(S(=O)(=O)N2Cc3nccnc3CC2C(=O)NO)cc1` (racemic) [the compound(8), (±)-N-Hydroxy-6-[4-(2-methoxyethoxy)benzenesulfonyl]-5,6,7,8-tetrahydropyrido[3,4-b]pyrazine-7-carboxamide], 840 nM.
Consider `CCCCCOc1ccc(S(=O)(=O)N2Cc3nccnc3CC2C(=O)NO)cc1` (racemic) [the compound(9), (±)-N-Hydroxy-6-(4-pentyloxybenzenesulfonyl)-5,6,7,8-tetrahydropyrido[3,4-b]pyrazine-7-carboxamide], for which the IC50 was determined as 460 nM.
Same read-out and setting: next, `COCCCCOc1ccc(S(=O)(=O)N2Cc3nccnc3CC2C(=O)NO)cc1` (racemic) [the compound(11), (±)-N-Hydroxy-6-[4-(methoxybutoxy)benzenesulfonyl]-5,6,7,8-tetrahydropyrido[3,4-b]pyrazine-7-carboxamide]: 1400 nM; `CCOCCCOc1ccc(S(=O)(=O)N2Cc3nccnc3CC2C(=O)NO)cc1` (racemic) [the compound(12), (±)-N-Hydroxy-6-[4-(ethoxypropoxy)benzenesulfonyl]-5,6,7,8-tetrahydropyrido[3,4-b]pyrazine-7-carboxamide]: 160 nM.
Consider `O=C(NO)C1Cc2nccnc2CN1S(=O)(=O)c1ccc(OCCF)cc1` (single isomer, unassigned; (+)) [the compound(18), (+)-N-Hydroxy-6-[4-(2-fluoroethoxy)benzenesulfonyl]-5,6,7,8-tetrahydropyrido[3,4-b]pyrazine-7-carboxamide], for which the 50% inhibitory concentration (IC50) turned out to be 160 nM.
Turning to `CC(C)COc1ccc(S(=O)(=O)N2Cc3nccnc3CC2C(=O)NO)cc1` (single isomer, unassigned; (+)) [the compound(22), (+)-N-Hydroxy-6-(4-isobuthoxybenzenesulfonyl)-5,6,7,8-tetrahydropyrido[3,4-b]pyrazine-7-carboxamide], the 50% inhibitory concentration (IC50) was found to be 3600 nM.
Same read-out and setting: for `CCOCCCOc1ccc(S(=O)(=O)N2Cc3nccnc3CC2C(=O)NO)cc1` (single isomer, unassigned; (+)) [the compound(23), (+)-N-Hydroxy-6-[4-(3-ethoxypropoxy)benzenesulfonyl]-5,6,7,8-tetrahydropyrido[3,4-b]pyrazine-7-carboxamide] the value was 92 nM; for `O=C(NO)C1Cc2nccnc2CN1S(=O)(=O)c1ccc(OCCCBr)cc1` (single isomer, unassigned; (+)) [the compound(24), (+)-N-Hydroxy-6-[4-(3-bromopropoxy)benzenesulfonyl]-5,6,7,8-tetrahydropyrido[3,4-b]pyrazine-7-carboxamide], 600 nM.
In the case of `CCCCOCCCOc1ccc(S(=O)(=O)N2Cc3nccnc3CC2C(=O)NO)cc1` (single isomer, unassigned; (+)) [the compound(25), (+)-N-Hydroxy-6-[4-(3-buthoxypropoxy)benzenesulfonyl]-5,6,7,8-tetrahydropyrido[3,4-b]pyrazine-7-carboxamide], the IC50 was found to be 260 nM.
Consider `CC(C)COCCCOc1ccc(S(=O)(=O)N2Cc3nccnc3CC2C(=O)NO)cc1` (single isomer, unassigned; (+)) [the compound(26), (+)-N-Hydroxy-6-[4-(3-isobuthoxypropoxy)benzenesulfonyl]-5,6,7,8-tetrahydropyrido[3,4-b]pyrazine-7-carboxamide], for which the IC50 was 560 nM.
The same measure, in the same setting: for `CC(C)(C)C(=O)Oc1ccc(S(=O)(=O)N2Cc3nccnc3CC2C(=O)NO)cc1` (single isomer, unassigned; (+)) [the compound(28), (+)-N-Hydroxy-6-(4-pivaloyloxybenzenesulfonyl)-5,6,7,8-tetrahydropyrido[3,4-b]pyrazine-7-carboxamide] the value was 2800 nM; for `N#CCCOc1ccc(S(=O)(=O)N2Cc3nccnc3CC2C(=O)NO)cc1` (single isomer, unassigned; (+)) [the compound(29), (+)-N-Hydroxy-6-[4-(2-cyanoethoxy)benzenesulfonyl]-5,6,7,8-tetrahydropyrido[3,4-b]pyrazine-7-carboxamide], 200 nM; for `CCOC(=O)COc1ccc(S(=O)(=O)N2Cc3nccnc3CC2C(=O)NO)cc1` (single isomer, unassigned; (+)) [the compound(30), (+)-N-Hydroxy-6-(4-ethoxycarbonylmethoxy-benzenesulfonyl)-5,6,7,8-tetrahydropyrido[3,4-b]pyrazine-7-carboxamide], 1000 nM.
`Cc1ccc(S(=O)(=O)N2Cc3nccnc3CC2C(=O)NO)cc1` (single isomer, unassigned; (+)) [the compound(31), (+)-N-Hydroxy-6-(4-methylbenzenesulfonyl)-5,6,7,8-tetrahydropyrido[3,4-b]pyrazine-7-carboxamide]: the IC50 was determined as 2700 nM.
On to `CCOC(=O)CCCOc1ccc(S(=O)(=O)N2Cc3nccnc3CC2C(=O)NO)cc1` (single isomer, unassigned; (+)) [the compound(32), (+)-N-Hydroxy-6-[4-(3-ethoxycarbonylpropoxy)benzenesulfonyl]-5,6,7,8-tetrahydropyrido[3,4-b]pyrazine-7-carboxamide], for which the IC50 amounted to 1100 nM.
Same read-out and setting: next, `CC(=O)OCCOc1ccc(S(=O)(=O)N2Cc3nccnc3CC2C(=O)NO)cc1` (single isomer, unassigned; (+)) [the compound(33), (+)-N-Hydroxy-6-[4-(2-acetoxyethoxy)benzenesulfonyl]-5,6,7,8-tetrahydropyrido[3,4-b]pyrazine-7-carboxamide]: 400 nM; `O=C(NO)C1Cc2nccnc2CN1S(=O)(=O)c1ccc(OCCO)cc1` (single isomer, unassigned; (+)) [the compound(34), (+)-N-Hydroxy-6-[4-(2-hydroxyethoxy)benzenesulfonyl]-5,6,7,8-tetrahydropyrido[3,4-b]pyrazine-7-carboxamide]: 1500 nM.
Consider `CSc1ccc(S(=O)(=O)N2Cc3nccnc3CC2C(=O)NO)cc1` (single isomer, unassigned; (+)) [the compound(35), (+)-N-Hydroxy-6-(4-methylthiobenzenesulfonyl)-5,6,7,8-tetrahydropyrido[3,4-b]pyrazine-7-carboxamide], for which the IC50 is 1500 nM.
`CCCCCCc1ccc(S(=O)(=O)N2Cc3nccnc3CC2C(=O)NO)cc1` (single isomer, unassigned; (+)) [the compound(38), (+)-N-Hydroxy-6-(4-hexylbenzenesulfonyl)-5,6,7,8-tetrahydropyrido[3,4-b]pyrazine-7-carboxamide]: the IC50 is 1700 nM.

In general, IC50 refers to the concentration that gives 50% inhibition.

Source of the values: US20030229113A1, “Keratinocyte growth inhibitors and hydroxamic acid derivatives” (priority 2003, published 2003).
